Reference: patent US20090042835A1, “COMPOSITIONS AND METHODS FOR AMELIORATING HYPERLIPIDEMIA” (priority 2006, published 2009)

What was measured:
[1] = biological target: T1, L-FABP (Homo sapiens, UniProt P07148); conditions: cited from earlier work
T1 sequence (P07148 1-127): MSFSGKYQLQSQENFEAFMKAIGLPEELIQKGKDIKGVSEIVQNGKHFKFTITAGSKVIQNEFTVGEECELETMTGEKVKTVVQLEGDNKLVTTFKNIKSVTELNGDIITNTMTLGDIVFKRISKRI

[2] = biological target: T1, L-FABP; assay: 1,8-ANS binding to FABP (direct binding isotherms)
Description: The pharmaceutical compound may be formulated using any small molecule that is capable of inhibiting L-FABP and which is pharmaceutically acceptable. One non-limiting example of a suitable L-FABP inhibitor is 3-(decyldimethylsilyl)-N-[2-(4-methylphenyl)-1-phenylethyl]propanamide (Sandoz compound 58-035) (lot #fr. 09061988), In some embodiments, such L-FABP inhibitors are identified using a screening assay. […] Suitable in vitro assays for testing L-FABP include, but are not limited to a high throughput L-FABP assay based on the 1,8-ANS binding assay (see: Kane, C. D., and Bernlohr, D. A. 1996, A simple assay for intracellular lipid-binding proteins using displacement of 1-anilinonaphthalene 8-sulfonic acid. Anal Biochem 233:197-204.) In this assay, recombinant L-FABP is incubated with a fluorescent surrogate ligand, 1-anilinonapthalene 8-sulfonic acid (ANS) and allowed to come to equilibrium. 1,8-ANS is non-fluorescent in solution but is highly fluorescent when bound in the hydrophobic, lipid-binding pocket of the fatty acid binding proteins. […] Chemical compounds in pools of 5 were added to each well and the fluorescence re-measured. […] In tertiary screens, the primary targets will be titrated into the FABP bound with 1,8-ANS and the displacement quantitated as a function of ligand concentration.

[3] = test system: control mice; assay: PPARα agonist GW-7647 feeding, hepatic mRNA, control mice; type: in vivo; conditions: 2.5 mg/kg/d in chow, 7 weeks
Method: (§1) Animal Studies. Male PPARα−/− mice and age matched WT littermates (on SV/129 background) were fed a standard chow diet, supplemented with either the PPARα agonist GW-7647 (2.5 mg/kg/d) or equivalent amount of solvent vehicle (DMSO), for 7 weeks. All animals had ad libitum access to water. Mice were weighed every 2 weeks and drug intake was adjusted according to mean weight. Upon end of treatment animals were sacrificed, liver was isolated, and total RNA was extracted using Versagene RNA Tissue Kit (Gentra Systems, Inc.). First-Strand cDNA synthesis and Real Time PCR expression analyses were performed as described above.

[4] = test system: PPARα−/− mice; assay: PPARα agonist GW-7647 feeding, hepatic mRNA, PPARα−/− mice; type: in vivo; conditions: 2.5 mg/kg/d in chow, 7 weeks
Method: as §1

[5] = biological target: T2, PPARα (rat, UniProt P37230 1-468); assay: inferred from EMSA supershift of the same FAO-specific DNA-protein complex with anti-RXRα and anti-PPARα antibodies
T2 construct: Nuclear receptor; It was present in a crude nuclear extract, not purified; also called PPAR alpha
T2 sequence (looked up): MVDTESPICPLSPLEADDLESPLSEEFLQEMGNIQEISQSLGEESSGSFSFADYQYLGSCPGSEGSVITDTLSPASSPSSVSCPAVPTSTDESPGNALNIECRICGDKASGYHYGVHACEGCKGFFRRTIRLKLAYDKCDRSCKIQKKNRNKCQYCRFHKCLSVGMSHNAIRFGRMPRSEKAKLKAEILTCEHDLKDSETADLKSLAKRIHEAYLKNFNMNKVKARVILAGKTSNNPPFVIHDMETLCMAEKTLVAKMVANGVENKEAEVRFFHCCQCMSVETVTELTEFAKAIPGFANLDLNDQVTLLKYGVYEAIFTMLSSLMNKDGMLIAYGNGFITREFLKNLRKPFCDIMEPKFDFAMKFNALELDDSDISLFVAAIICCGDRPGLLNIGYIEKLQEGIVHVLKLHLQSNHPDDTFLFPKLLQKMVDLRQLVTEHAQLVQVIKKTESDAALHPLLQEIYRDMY
Method: The probes were prepared by annealing the complementary oligonucleotides and by end labeling with [γ-³²P]ATP ([…]), PerkinElmer Life Sciences) using T4 polynucleotide kinase (New England Biolabs), followed by purification on a G50 column. For binding reactions, 15 μg of nuclear extracts were incubated with 3×10^4 cpm probe on ice for 20 min in a total volume of 15 μl of solution (20 mM HEPES, pH7.9 at 4° C., 10% glycerol, 100 mM KCl, 1 mM EDTA, and 2 μg poly(dI-dC). For supershift experiments, 1 μl of specific antibodies were added to preincubated DNA-protein complexes for an additional 20 min on ice. Antibodies against COUP-TFII (sc-6576X), RXRα (sc-553X), and PPARα (sc-9000X) were obtained from Santa Cruz Biotechnology, Inc. DNA-protein complexes were resolved on 4% native polyacrylamide gel electrophoresis containing 0.5×TBE buffer.
PPARα-RXRα heterodimers compete with COUP-TFII for binding to the DR1 promoter elements of both the MTP and L-FABP genes. […] In contrast, PPARα-RXRα supershifts were not detected with the nuclear extracts obtained from L35 cells ((4)). These Findings indicate that in FAO cells, the DR1 sites of both the L-FABP and MTP promoters are occupied by PPARα-RXRα heterodimers while these same sites are occupied by a COUP-TFII complex in L35 cells.

CCCCCCCCCC[Si](C)(C)CCC(=O)NC(Cc1ccc(C)cc1)c1ccccc1 (stereo not shown) [Sandoz compound 58-035, 3-(decyldimethylsilyl)-N-[2-(4-methylphenyl)-1-phenylethyl]propanamide]
inhibition of L-FABP [1]: inhibit L-FABP

O=S(=O)(O)c1cccc2cccc(Nc3ccccc3)c12 [1,8-ANS, 1-anilinonapthalene 8-sulfonic acid]
Kd [2]: 1500 nM

CC(C)(Sc1ccc(CCN(CCCCC2CCCCC2)C(=O)NC2CCCCC2)cc1)C(=O)O [GW-7647]
hepatic L-FABP mRNA level [3]: increased levels | hepatic MTP mRNA level [3]: increased levels | hepatic L-FABP expression level [4]: no significant changes | hepatic MTP expression level [4]: no significant changes

B1: RXRα (receptor, rat, UniProt Q05343 1-467, looked up)
chain: MDTKHFLPLDFSTQVNSSSLSSPTGRGSMAAPSLHPSLGPGLGSPLGSPGQLHSPISTLSSPINGMGPPFSVISSPMGPHSMSVPTTPTLGFETGSPQLNSPMNPVSSSEDIKPPLGLNGVLKVPAHPSGNMSSFTKHICAICGDRSSGKHYGVYSCEGCKGFFKRTVRKDLTYTCRDNKDCLIDKRQRNRCQYCRYQKCLAMGMKREAVQEERQRGKDRNENEVESTSSANEDMPVEKILEAELAVEPKTETYVEANMGLNPSSPNDPVTNICQAADKQLFTLVEWAKRIPHFSELPLDDQVILLRAGWNELLIASFSHRSIAVKDGILLATGLHVHRNSAHSAGVGAIFDRVLTELVSKMRDMQMDKTELGCLRAIVLFNPDSKGLSNPAEVEALREKVYASLEAYCKHKYPEQPGRFAKLLLRLPALRSIGLKCLEHLFFFKLIGDTPIDTFLMEMLEAPHQTT
notes: Nuclear receptor; It was present in a crude nuclear extract, not purified; also called RXR alpha
binding result [5]: binds
